Reference: ChEMBL document CHEMBL3885881, “DrugMatrix”

Species on record: Rattus norvegicus
Assay: DrugMatrix - Regimen: Daily Repeat
Type: toxicity, organism-based, Sprague-Dawley
Design: regimen Daily Repeat, gender Male, age 6-8 weeks
Conditions: in vivo, po, route oral GAVAGE, vehicle 100 % WATER; for URIC ACID / ALANINE AMINOTRANSFERASE / ALKALINE PHOSPHATASE / ASPARTATE AMINOTRANSFERASE / BLOOD UREA NITROGEN / CARBON DIOXIDE / CHLORIDE / CHOLESTEROL / CREATINE PHOSPHOKINASE / CREATININE / GLUCOSE / LACTATE DEHYDROGENASE / LIPASE / PHOSPHORUS / POTASSIUM / SODIUM / TOTAL BILIRUBIN / TOTAL PROTEIN: tissue Plasma; for ABSOLUTE BASOPHIL / ABSOLUTE EOSINOPHIL / ABSOLUTE LYMPHOCYTE / ABSOLUTE MONOCYTE / ABSOLUTE SEGMENTED NEUTROPHIL / BASOPHIL / EOSINOPHIL / ERYTHROCYTE COUNT / HEMATOCRIT / HEMOGLOBIN / LEUKOCYTE COUNT / LYMPHOCYTE / MEAN CORPUSCULAR HEMOGLOBIN / MEAN CORPUSCULAR HEMOGLOBIN CONCENTRATION / MEAN CORPUSCULAR VOLUME / MONOCYTE / NEUTROPHIL / NUCLEATED RED BLOOD CELLS: tissue Blood
[1] = 18 mg/kg, 120 h, dose level Low, time 5 day
[2] = 73 mg/kg, 72 h, dose level High, time 3 day
[3] = 73 mg/kg, 120 h, dose level High, time 5 day

## CN(C)CCCN1c2ccccc2Sc2ccc(Cl)cc21 [CHLORPROMAZINE]
18 mg/kg, 72 h, dose level Low, time 3 day
  URIC ACID: 0.4 mg/dL
[1]
  ABSOLUTE BASOPHIL: 0 CELLS/uL
  ABSOLUTE EOSINOPHIL: 76 CELLS/uL
  ABSOLUTE LYMPHOCYTE: 7709.67 CELLS/uL
  ABSOLUTE MONOCYTE: 216 CELLS/uL
  ABSOLUTE SEGMENTED NEUTROPHIL: 898.33 CELLS/uL
  BASOPHIL: 0%
  EOSINOPHIL: 0.67%
  ERYTHROCYTE COUNT: 5.62 x10E6/uL
  HEMATOCRIT: 36.23%
  HEMOGLOBIN: 13.87 G/DL
  LEUKOCYTE COUNT: 8.9 x10E3/uL
  LYMPHOCYTE: 87%
  MEAN CORPUSCULAR HEMOGLOBIN: 24.7 pg
  MEAN CORPUSCULAR HEMOGLOBIN CONCENTRATION: 38.27 G/DL
  MEAN CORPUSCULAR VOLUME: 64.5 fL
  MONOCYTE: 2.33%
  NEUTROPHIL: 10%
  NUCLEATED RED BLOOD CELLS: 0 /100WBC
  ALANINE AMINOTRANSFERASE: 54.67 u/L
  ALKALINE PHOSPHATASE: 255.67 u/L
  ASPARTATE AMINOTRANSFERASE: 80.33 u/L
  BLOOD UREA NITROGEN: 14.33 mg/dL
  CARBON DIOXIDE: 29.33 mmol/L
  CHLORIDE: 102.33 MEQ/L
  CHOLESTEROL: 84.67 mg/dL
  CREATINE PHOSPHOKINASE: 218.67 u/L
  CREATININE: 0.12 mg/dL
  GLUCOSE: 141.33 mg/dL
  LACTATE DEHYDROGENASE: 69.67 u/L
  LIPASE: 9 u/L
  PHOSPHORUS: 11.6 mg/dL
  POTASSIUM: 5.95 MEQ/L
  SODIUM: 145.57 MEQ/L
  TOTAL BILIRUBIN: 0.13 mg/dL
  URIC ACID: 0.6 mg/dL
[2]
  ABSOLUTE BASOPHIL: 0 CELLS/uL
  ABSOLUTE EOSINOPHIL: 0 CELLS/uL
  ABSOLUTE LYMPHOCYTE: 7383 CELLS/uL
  ABSOLUTE MONOCYTE: 208 CELLS/uL
  ABSOLUTE SEGMENTED NEUTROPHIL: 342.33 CELLS/uL
  BASOPHIL: 0%
  EOSINOPHIL: 0%
  ERYTHROCYTE COUNT: 5.6 x10E6/uL
  HEMATOCRIT: 35.37%
  HEMOGLOBIN: 13.77 G/DL
  LEUKOCYTE COUNT: 7.93 x10E3/uL
  LYMPHOCYTE: 92.33%
  MEAN CORPUSCULAR HEMOGLOBIN: 24.63 pg
  MEAN CORPUSCULAR HEMOGLOBIN CONCENTRATION: 38.93 G/DL
  MEAN CORPUSCULAR VOLUME: 63.17 fL
  MONOCYTE: 3%
  NEUTROPHIL: 4.67%
  NUCLEATED RED BLOOD CELLS: 0 /100WBC
  ALANINE AMINOTRANSFERASE: 56 u/L
  ALKALINE PHOSPHATASE: 291.33 u/L
  ASPARTATE AMINOTRANSFERASE: 84 u/L
  BLOOD UREA NITROGEN: 14.33 mg/dL
  CARBON DIOXIDE: 37.67 mmol/L
  CHLORIDE: 101 MEQ/L
  CHOLESTEROL: 99 mg/dL
  CREATINE PHOSPHOKINASE: 176.33 u/L
  CREATININE: 0.27 mg/dL
  GLUCOSE: 154.67 mg/dL
  LACTATE DEHYDROGENASE: 52.67 u/L
  LIPASE: 12 u/L
  PHOSPHORUS: 8.2 mg/dL
  POTASSIUM: 5.02 MEQ/L
  SODIUM: 145.37 MEQ/L
  TOTAL BILIRUBIN: 0.13 mg/dL
  TOTAL PROTEIN: 5.7 G/DL
  URIC ACID: 0.4 mg/dL
[3]
  ABSOLUTE BASOPHIL: 0 CELLS/uL
  ABSOLUTE EOSINOPHIL: 148.67 CELLS/uL
  ABSOLUTE LYMPHOCYTE: 10432 CELLS/uL
  ABSOLUTE MONOCYTE: 268.67 CELLS/uL
  ABSOLUTE SEGMENTED NEUTROPHIL: 584 CELLS/uL
  BASOPHIL: 0%
  EOSINOPHIL: 1.33%
  ERYTHROCYTE COUNT: 6.19 x10E6/uL
  HEMATOCRIT: 38.2%
  HEMOGLOBIN: 14.83 G/DL
  LEUKOCYTE COUNT: 11.43 x10E3/uL
  LYMPHOCYTE: 91%
  MEAN CORPUSCULAR HEMOGLOBIN: 23.93 pg
  MEAN CORPUSCULAR HEMOGLOBIN CONCENTRATION: 38.87 G/DL
  MEAN CORPUSCULAR VOLUME: 61.63 fL
  MONOCYTE: 2.33%
  NEUTROPHIL: 5.33%
  NUCLEATED RED BLOOD CELLS: 0 /100WBC
  ALANINE AMINOTRANSFERASE: 61.67 u/L
  ALKALINE PHOSPHATASE: 321.67 u/L
  ASPARTATE AMINOTRANSFERASE: 110.67 u/L
  BLOOD UREA NITROGEN: 24.67 mg/dL
  CARBON DIOXIDE: 27.67 mmol/L
  CHLORIDE: 103.33 MEQ/L
  CHOLESTEROL: 87.33 mg/dL
  CREATINE PHOSPHOKINASE: 231.67 u/L
  CREATININE: 0.25 mg/dL
  GLUCOSE: 142.33 mg/dL
  LACTATE DEHYDROGENASE: 88.67 u/L
  LIPASE: 10.33 u/L
  PHOSPHORUS: 9.27 mg/dL
  POTASSIUM: 5.11 MEQ/L
  SODIUM: 145.67 MEQ/L
  TOTAL BILIRUBIN: 0.17 mg/dL
  TOTAL PROTEIN: 6.07 G/DL
  URIC ACID: 0.43 mg/dL
